Measurements: US5534511A, “Aminoalkyl benzoxazolinones and benzothiazolinones” (Adir et Compagnie, priority 1994, dated 1996)

System: NMRI-CERJ mice
Test: Antagonism of the hypermotility induced by amphetamine
Assay type: in vivo
Settings: d-amphetamine 4 mg kg^-1 IP, 30 minutes
Protocol: 4 mg kg^-1 of d-amphetamine are injected intraperitoneally (IP) into groups of 10 NMRI-CERJ mice immediately after IP injection of the compound to be tested, and the mice are placed in an actimeter for 30 minutes.
The number of interruptions of the photoelectric cells is counted, as is the stereotyped behavior.
The activity of the compounds tested is expressed as a percentage of the antagonism of the hyperactivity induced by amphetamine.

Q: How did the “percentage of the antagonism of the hyperactivity induced by amphetamine” value (shortened to “percentage”) (2 mg.kg^-1 IP) turn out when `Cn1c(=O)sc2cc(CCN3CCC(Cc4ccccc4)CC3)ccc21` [Example 1, 3-METHYL-6-[2-(4-BENZYLPIPERID-1-YL)ETHYL]BENZOTHIAZOLINONE] was run?
A: 23%

Q: And the “percentage” value (4 mg.kg^-1 IP)?
A: 50%

Q: And the “percentage” value (8 mg.kg^-1 IP)?
A: 63%
